Test results published in patent publication US12466813B2, “PRC1 inhibitors and methods of treatment therewith” (The Regents of the University of Michigan, priority 2018, dated 2025).
pKd: −log10 of the molar value.

Biological target: T1, RING1B-BMI1 (Homo sapiens, UniProt Q99496)
T1 sequence (Q99496 1-336): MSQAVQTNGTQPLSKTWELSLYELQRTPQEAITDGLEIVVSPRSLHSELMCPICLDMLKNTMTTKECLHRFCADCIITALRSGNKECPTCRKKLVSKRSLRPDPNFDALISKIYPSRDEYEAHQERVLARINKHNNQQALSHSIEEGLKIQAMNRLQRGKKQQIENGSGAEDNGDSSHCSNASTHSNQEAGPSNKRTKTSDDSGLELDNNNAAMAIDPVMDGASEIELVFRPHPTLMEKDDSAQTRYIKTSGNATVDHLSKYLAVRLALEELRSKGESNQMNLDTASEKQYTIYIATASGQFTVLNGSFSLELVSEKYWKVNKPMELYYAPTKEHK
T1 sequence (P35226 1-326 partner): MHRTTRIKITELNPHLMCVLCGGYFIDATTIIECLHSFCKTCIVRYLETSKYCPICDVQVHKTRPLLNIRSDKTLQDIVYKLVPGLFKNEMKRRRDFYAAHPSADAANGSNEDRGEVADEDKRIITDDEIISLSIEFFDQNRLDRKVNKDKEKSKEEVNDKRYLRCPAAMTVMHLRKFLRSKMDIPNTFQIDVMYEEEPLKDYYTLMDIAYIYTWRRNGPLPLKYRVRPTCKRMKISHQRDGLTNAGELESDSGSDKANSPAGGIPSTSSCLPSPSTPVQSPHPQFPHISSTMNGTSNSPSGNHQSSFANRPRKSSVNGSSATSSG
Experiment: KD classes of Table A (direct binding to Ring1B-Bmi1)
Conditions: class given in Table A
Method: Experiments were conducted during development of embodiments herein to develop small molecule inhibitors of PRC1 by targeting the Ring1B-BMI1 E3 ligase. These compounds bind directly to Ring1B-Bmi1 with low-micromolar affinity and inhibit PRC1 in vitro and in cells. […] Experiments were conducted during development of embodiments herein to test COMPOUND 1 in leukemia stem cell models represented by TEX cells (Ref. 22; herein incorporated by reference in its entirety) and M9-ENL1 cells (Ref. 23; herein incorporated by reference in its entirety). […] In some embodiments, COMPOUND 1 and COMPOUND 1 analogs are find use as agents in targeting leukemia and other cancer stem cells.
The compounds listed in Table A have been synthesized and/or tested for activity in inhibiting activity of PRC1 complex, and are within the scope herein.

Row | Compound | pKd
1 | CC(C)c1c(-c2ccc3cc[nH]c3c2)[nH]c(C(=O)O)c1-c1c(Cl)ccc2[nH]ccc12 [compound 182, 3-(5-chloro-1H-indol-4-yl)-5-(1H-indol-6-yl)-4-isopropyl-1H-pyrrole-2-carboxylic acid] | > 4.70
2 | O=C(O)c1ccc(-c2ccccc2Oc2ccccc2)[nH]1 [compound 136] | < 4.00
3 | COc1ccc(OC)c(-c2ccc(C(=O)O)[nH]2)c1 [compound 155] | < 4.00
4 | Cn1ccc2c(-c3ccc(C(=O)O)[nH]3)cccc21 [compound 127] | < 4.00
5 | COc1ccc(-c2cc3c(-c4c(C(=O)O)[nH]c(-c5cc(F)cc6[nH]ccc56)c4C(C)C)ccnc3[nH]2)cc1 [compound 252] | > 4.70
6 | NC(=O)c1ccc(-c2cccc3[nH]ccc23)[nH]1 [compound 145] | < 4.00
7 | CC(C)c1c(-c2cc(F)cc3[nH]ccc23)[nH]c(C(=O)O)c1-c1cccc2[nH]c(C(=O)O)cc12 [compound 47] | > 4.70
8 | CC(C)c1c(-c2cc(F)cc3[nH]cc(CCNC(=O)CCCCCNC(=O)c4ccc5c(c4)C(=O)OC54c5ccc(O)cc5Oc5cc(O)ccc54)c23)[nH]c(C(=O)O)c1-c1c(Cl)ccc2[nH]ccc12 [compound 70] | > 4.70
9 | CC(C)c1c(-c2cccc3[nH]cc(CCO)c23)[nH]c(C(=O)O)c1-c1c(Cl)ccc2[nH]ccc12 [compound 27] | > 4.70
10 | CCOC(=O)c1[nH]c(-c2c(OC)cccc2OC)c(CC)c1-c1ccc(OC)cc1Cl [compound 164] | < 4.00
11 | CC(C)c1c(-c2cc(F)cc3[nH]ccc23)[nH]c(C(=O)O)c1-c1ccnc2[nH]c(-c3ccsc3)cc12 [compound 250] | > 4.70
12 | COc1cc(-c2c(C(=O)O)[nH]c(-c3cc(F)cc4[nH]ccc34)c2C(C)C)c2cc[nH]c2c1 [compound 39] | > 4.70
13 | CCOc1ccc(-c2c(C(=O)O)[nH]c(-c3cccc4[nH]ccc34)c2CC)c(Cl)c1 [compound 23] | > 4.70
14 | COc1ccc(-c2c(C(=O)O)[nH]c(-c3cc(F)cc4[nH]ccc34)c2C(C)C)c(Cl)c1 [compound 56] | > 4.70
15 | CC(C)c1c(-c2cc(F)cc3[nH]ccc23)[nH]c(C(=O)O)c1-c1cccc2[nH]c(CCS(N)(=O)=O)cc12 [compound 231] | > 4.70
16 | CCc1c(-c2cccc3[nH]ccc23)[nH]c(C(=O)O)c1-c1cccc2[nH]ccc12 [compound 20] | > 4.70
17 | CC(C)c1c(-c2cc(F)cc3[nH]ccc23)[nH]c(C(=O)O)c1-c1cc(C(F)(F)F)cc2[nH]ccc12 [compound 43] | > 4.70
18 | CC(C)c1c(-c2cc(F)cc3[nH]ccc23)[nH]c(C(=O)O)c1-c1cccc2c1ccn2CCS(N)(=O)=O [compound 266] | > 4.70
19 | CCc1c(-c2cccc3[nH]ccc23)[nH]c(C(=O)O)c1-c1cccc2c1ccn2CC [compound 21] | > 4.70
20 | CC(C)CCn1ccc2c(-c3ccc(C(=O)O)[nH]3)cccc21 [compound 124] | < 4.00
21 | COc1ccc(C)cc1-c1ccc(C(=O)O)[nH]1 [compound 137] | < 4.00
22 | CC(C)c1c(-c2cc(F)cc3[nH]ccc23)[nH]c(C(=O)O)c1-c1cccc2[nH]c(CS(N)(=O)=O)cc12 [compound 229] | > 4.70
23 | CCc1c(C(=O)O)[nH]c(-c2cccc3[nH]ccc23)c1-c1ccccc1 [compound 113] | < 4.00
24 | CC(C)c1c(-c2cc(F)cc3[nH]ccc23)[nH]c(C(=O)O)c1-c1cccc2scnc12 [compound 172] | > 4.70
25 | CC(C)c1c(-c2cc(Cl)cc3[nH]ccc23)[nH]c(C(=O)O)c1-c1c(Cl)ccc2[nH]ccc12 [compound 13] | > 4.70
26 | CC(C)c1c(-c2cc(F)cc3[nH]ccc23)[nH]c(C(=O)O)c1-c1ccnc2[nH]c(-c3ccccc3)cc12 [compound 251] | > 4.70
27 | CC(C)c1c(-c2cc(F)cc3[nH]ccc23)[nH]c(C(=O)O)c1-c1ccnc2[nH]ccc12 [compound 74] | > 4.70
28 | CCOc1cc(-c2c(C(=O)O)[nH]c(-c3cc(F)cc4[nH]ccc34)c2C(C)C)c2cc[nH]c2c1 [compound 42] | > 4.70
